Results taken from US4755529A, “Guaiazulene derivatives and their methods of use” (Harbor Branch Oceanographic Institution Inc., priority 1986, dated 1988).
≈ marks a conversion by molar mass, not a printed value.

Legend:
[1] = tested on: C. albicans; assay: Minimum inhibitory concentration (MIC), anti-Candida assay; format: cell-based; conditions: approximately 1000 cells/mL, 37° C. overnight
Description: Candida albicans: C. albicans (Ca) is grown on Sabouraud dextrose agar to produce single colonies one of which is used to inoculate Sabouraud dextrose broth. The broth is incubated at 37° C. with shaking at 200 rpm for 18 hrs., the resultant culture is frozen with 10% (v/v) glycerol at -80° C. and used as the inoculum for the anti-Candida assay. Two-fold dilutions of the drug are prepared in 50 μL volumes of Sabouraud dextrose broth using 96-well microtiter plates. An inoculum of C. albicans is added in a small volume to give a cell density of approximately 1000 cells/mL. Plates are incubated at 37° C. overnight. 10 uL of Triphenyl tetrazolium chloride (1% w/v) is then added to each well; a further 2 hour incubation results in a deep coloration of the microorganism.

[2] = tested on: mixed lymphocytes (BALB/c+C57BL/6); assay: Mixed lymphocyte reaction (MLR) assay; format: cell-based, murine; conditions: Mus musculus, percent of positive control, 3H-thymidine, immunostimulatory criterion 150% or greater, read-out: Immunomodulatory activity, % Reference; for activity at 5 µg/mL: 5 ug/ml; for activity at 50 µg/mL: 50 ug/ml
Description: The assay method was uded to identify immune response modifiers of the compositions of Formulae I-III corresponding to composition 1-3 of the samples.
Aseptically removed spleens from BALB/c and C57BL/6 mice were homogenized, separately, in RPMI 1640 medium with 10% fetal calf serum, 2% L-glutamine,15 mM HEPES, 1% antibiotic-antimycotic solution and 25 μg/ml gentamycin (GIBCO). Lymphocytes were then derived by differential cetrifugation after red blood cell lysing and serial cell washing in complete media. Cells were adjusted to equal concentrations (2.5×10^6 cells/ml) and combined after removal of negative control aliquots. Incubation conditions for the cells were 5% CO2, 95% air at 37° C.
1. Add composition to each well of a 96-well plate and allow solvent to evaporate to dryness, if not aqueous.
2. Add 0.2 ml mixed lymphocytes (BALB/c+C57BL/6) to each well and mix.
3. Incubate in 5% CO2 at 37° C. for 86 hours.
4. Pulse wells with 0.1 ml ^3 H-thymidine (1 uCi/well).
5. Incubate in 5% CO2 at 37° C. for 6 hours.
6. Harvest plates and add 2 ml scintillant to each vial containing a filter disc.
7. Count vials in a liquid scintillation counter (Beckman).
8. Average replicate counts and report data as percent of positive control. The criteria for immunostimulatory effectiveness is a value of 150%, or greater, above control values for mixed lymphocytes in culture.

[3] = tested on: P388 mouse leukemia cells; assay: P388 mouse leukemia cell assay; format: cell-based; conditions: 48 hours
Description: P388 mouse leukemia cells are grown in Dulbecco MEM medium with 10% horse serum 4 mM, glutamine, and 20 μg/ml gentamycin (Biologos, Inc.). Cells are incubated in 10% CO2 and subcultured 2 times per week.
1. Add composition to each well of a 24-well plate or tube and allow solvent to evaporate to dryness.
2. Add 2 ml (1.2×10^5) cells to each well or tube and mix.
3. Incubate in 10% CO2 at 37° for 48 hours.
4. Read plates with an inverted microscope, scoring activity from 1+ to 4+ as follows: ND (not detectable), >90%, 1+, 75-90%; 2+, 50-74%; 3+, 25-49%; 4+, <25% of control growth. Alternatively, scoring may be expressed as IC50 which represents the minimum concentration of the composition required to inhibit 50% of the cell growth on the plate. Cell counts are performed on each tube and results are reported as percent of control.

MIC [1] [µg/mL] | IC50 [3] [µg/mL] | SMILES | activity at 5 µg/mL [2] [%] | activity at 50 µg/mL [2] [%]
12.5 (≈ 59.4 µM) | 50 (≈ 238 µM) | Cc1cc2occ(C)c2cc2c(C)ccc1-2 [Composition (3), linderazulene] | 155 | 19
25 (≈ 126 µM) | 35 (≈ 176 µM) | Cc1ccc(C(C)C)cc2c(C)ccc1-2 [Composition (2), guaiazulene] | 284 | 351
50 (≈ 236 µM) | 35 (≈ 165 µM) | Cc1cc2c(cc3c(C)ccc1-3)C(C)CO2 (stereo not drawn) [Composition (1), dihydrolinderazulene] | 255 | 1
